Experimental data as given in US12662483B2, “Cocrystalline forms of FGFR3 inhibitors” (Eli Lilly and Company, priority 2022, dated 2026).
≈ marks a conversion by molar mass, not a printed value.

Experiments:
[1] = Solubility in aqueous and biorelevant media (HPLC of supernatant); conditions: for solubility at 24 h: thermodynamic from solid
From the text: Samples of Isomer 2 IPMC SDD, Isomer 2 HPMC-AS-M SDD, Isomer 2 PVP-VA SDD, and the cocrystalline form of Formula I or Formula II were centrifuged.

[2] = Dynamic vapor sorption (DVS); format: physicochemical; conditions: 25° C.
Experimental: Dynamic vapor sorption (DVS) analysis is obtained at 25° C. using a TA Instruments Q5000SA VTI flow moisture balance running TA Thermal Advantage, v5.2.6 and Universal Analysis 2000, v4.5a Software. The equilibrium criterion was <0.01% weight change in 5 minutes for a maximum of 60 minutes. Humidity verification calibration was performed with sodium bromide. The weight calibration was performed with manufacturer-supplied standards.
A prepared sample of the cocrystalline form of Formula I is characterized by dynamic vapor sorption as having a range of water content from about 1% at 0% RH to about 3.2% at 90% RH.

[3] = Solid state stability at 40° C./75% RH, caps off; format: physicochemical; conditions: 40° C. and 75% relative humidity
FGFR3 protein = target: T1, FGFR3 protein (Homo sapiens, UniProt P22607); experiment: FGFR3 enzyme assay (KinEASE-TK HTRF); format: biochemical; conditions: at Km ATP, 0.25 nM enzyme
T1 construct: purchased Reaction Biology 1068
T1 sequence (P22607 23-806): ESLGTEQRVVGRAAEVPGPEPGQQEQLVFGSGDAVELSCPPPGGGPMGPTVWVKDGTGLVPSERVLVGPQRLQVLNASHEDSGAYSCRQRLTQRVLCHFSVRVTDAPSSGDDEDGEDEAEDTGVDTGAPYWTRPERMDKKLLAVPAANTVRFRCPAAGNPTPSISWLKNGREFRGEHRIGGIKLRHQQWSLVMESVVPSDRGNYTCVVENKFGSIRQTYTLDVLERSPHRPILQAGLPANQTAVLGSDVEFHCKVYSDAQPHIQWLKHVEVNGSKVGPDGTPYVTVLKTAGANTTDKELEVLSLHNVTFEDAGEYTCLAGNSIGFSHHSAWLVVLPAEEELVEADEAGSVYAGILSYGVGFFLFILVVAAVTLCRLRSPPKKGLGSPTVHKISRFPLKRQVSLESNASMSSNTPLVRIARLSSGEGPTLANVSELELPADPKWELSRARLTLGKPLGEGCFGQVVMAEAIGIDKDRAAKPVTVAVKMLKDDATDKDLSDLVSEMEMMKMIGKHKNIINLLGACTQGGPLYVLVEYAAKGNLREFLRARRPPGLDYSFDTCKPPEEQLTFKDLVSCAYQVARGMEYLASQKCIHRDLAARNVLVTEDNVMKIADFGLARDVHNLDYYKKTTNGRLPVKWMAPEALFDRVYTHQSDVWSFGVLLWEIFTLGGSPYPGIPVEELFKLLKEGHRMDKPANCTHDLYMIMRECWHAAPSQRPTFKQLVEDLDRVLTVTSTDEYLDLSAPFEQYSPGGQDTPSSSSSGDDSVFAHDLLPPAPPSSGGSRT
Experimental: Enzyme activity was monitored using the KinEASE™-TK Assay Kit (CisBio, Cat. No. 62TK0PEC) according to the manufacturer's instructions. All assays were performed at the respective KmATP for each kinase in KinEASE™ Kinase Buffer.
Titration of Isomers 1, 2, and A were performed in a half-log manner in 100% dimethyl sulfoxide (DMSO) starting at 1 uM. Prior to the initiation of the reaction by adenosine triphosphate (ATP), FGFR1 protein and Isomers 1, 2, and A were pre-incubated for 15 minutes at room temperature, and FGFR3 protein and Isomers 1, 2, and A were pre-incubated on ice for 15 minutes. Reactions proceeded for 30 min at 30° C. Plates were quenched by the addition of the Anti-TK cryptate antibody/Streptavidin-XL665 mixture.
Ratios were converted to a percent of control (POC) using a ratiometric emission factor. One hundred POC was determined using no test compound, and 0 POC was determined in the presence of 1 uM of an appropriate control inhibitor. A 4-parameter logistic curve was fit to the POC values as a function of the concentration of Isomers 1, 2, and A, and the IC50 value was the point where the best fit curve crossed 50 POC.

[4] = fasted simulated intestinal fluid

Cc1c(-c2cc(O[C@H](CO)c3ccc(F)cn3)c3c(Cl)cnn3c2)nnn1C1CCN(C#N)CC1 (single isomer, unassigned; isomer 2) [cocrystalline form of Formula I, 4-[4-[3-Chloro-4-[1-(5-fluoro-2-pyridyl)-2-hydroxy-ethoxy]pyrazolo[1,5-a]pyridin-6-yl]-5-methyl-triazol-1-yl]piperidine-1-carbonitrile, Isomer 2, Hemi-Gallic Acid Cocrystalline Form, Hemihydrate]
solubility relative to Isomer 2 with IPMC SDD [1, 4]: about two to about three times more soluble
solubility relative to freebase form of Isomer 2 [1, 4]: about four to about five times more soluble
water content by dynamic vapor sorption ([2]; 0% RH): about 1%
water content by dynamic vapor sorption ([2]; 90% RH): about 3.2%
stability relative to SDD formulations of Isomer 2 (IPMC, HPMC-AS-M, PVP-VA) [3]: more stable

Cc1c(-c2cc(O[C@H](CO)c3ccc(F)cn3)c3c(Cl)cnn3c2)nnn1C1CCN(C#N)CC1 [Isomer 2, 4-[4-[3-chloro-4-[1-(5-fluoro-2-pyridyl)-2-hydroxy-ethoxy]pyrazolo[1,5-a]pyridin-6-yl]-5-methyl-triazol-1-yl]piperidine-1-carbonitrile, Isomer 2]
solubility at 24 h ([1]; 0.01N aqueous HCl, simulated gastric fluid): 7 µg/mL (≈ 14.1 µM)
solubility at 24 h ([1]; 0.1N aqueous HCl, simulated gastric fluid): 12 µg/mL (≈ 24.1 µM)
solubility at 24 h ([1]; acetate buffer USP, pH 4.5, aqueous buffer): 6 µg/mL (≈ 12.1 µM)
solubility at 24 h ([1]; phosphate buffer USP, pH 6, aqueous buffer): 6 µg/mL (≈ 12.1 µM)
solubility at 24 h ([1]; phosphate buffer USP, pH 7.5, aqueous buffer): 5 µg/mL (≈ 10.1 µM)
solubility at 24 h ([1]; simulated gastric fluid): 47 µg/mL (≈ 94.6 µM)
solubility at 24 h ([1]; simulated intestinal fluid (fasted), fassif): 10 µg/mL (≈ 20.1 µM)
solubility at 24 h ([1]; simulated intestinal fluid (fed), fessif): 38 µg/mL (≈ 76.5 µM)
solubility at 24 h ([1]; water): 6 µg/mL (≈ 12.1 µM)

Cc1c(-c2cc(O[C@H](CO)c3ccccn3)c3c(Cl)cnn3c2)nnn1C1CCN(C#N)CC1 [Isomer A, 4-[4-[3-chloro-4-[2-hydroxy-1-(2-pyridyl)ethoxy]pyrazolo[1,5-a]pyridin-6-yl]-5-methyl-triazol-1-yl]piperidine-1-carbonitrile, Isomer 1]
IC50 (FGFR3 protein): < 50 nM
